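Grown in 96-well plates, cells were treated for 48 hours with each compound at five concentrations. Insufficient inhibition: endpoint recorded as highest concentration tested. GI50: concentration for 50% inhibition of growth.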 The source made the active and inactive calls. Rule as the data show it: active = GI50 up to about 1.1 µM and inactive = higher.
Columns and labels:
Experiment in all cases: NCI anticancer screen, dose series, 48 h
[1] = test system: OVCAR-5
[2] = test system: OVCAR-4
[3] = test system: OVCAR-8
[4] = test system: MOLT-4
[5] = test system: SK-MEL-2
[6] = test system: OVCAR-3
[7] = test system: SF-295
[8] = test system: SW-620
[9] = test system: HCT-15
[10] = test system: IGROV-1
[11] = test system: HCC 2998
[12] = test system: NCI-H23
[13] = test system: K562
[14] = test system: CCRF-CEM
[15] = test system: CAKI-1
[16] = test system: RPMI-8226
[17] = test system: ACHN
[18] = test system: RXF 393
[19] = test system: SR

Structure (SMILES) | GI50 [1] | GI50 [2] | GI50 [3] | GI50 [4] | GI50 [5] | GI50 [6] | GI50 [7] | GI50 [8] | GI50 [9] [µM] | GI50 [10] | GI50 [11] | GI50 [12] | GI50 [13] | GI50 [14] | GI50 [15] | GI50 [16] | GI50 [17] | GI50 [18] | GI50 [19]
CN(C)c1ccc(/C=C/C(=O)c2ccccc2)cc1Br | 49.3 µM (inactive) | 15.5 µM (inactive) | 23.2 µM (inactive) | 23 µM (inactive) | 18.4 µM (inactive) | 17.8 µM (inactive) | 20 µM (inactive) | 19.9 µM (inactive) | 22.9 | 20.2 µM (inactive) | 19.2 µM (inactive) | 16.5 µM (inactive) | 20.6 µM (inactive) | 20.5 µM (inactive) | 16.3 µM (inactive) | 13.2 µM (inactive) | 22.8 µM (inactive) | – | –
Cn1c(CCC#N)nc2ccc(Br)cc2c1=O | > 100 µM (inactive) | > 100 µM (inactive) | > 100 µM (inactive) | > 100 µM (inactive) | > 100 µM (inactive) | – | > 100 µM (inactive) | > 100 µM (inactive) | > 100 | > 100 µM (inactive) | > 100 µM (inactive) | 41.7 µM (inactive) | > 100 µM (inactive) | 51.9 µM (inactive) | > 100 µM (inactive) | > 100 µM (inactive) | > 100 µM (inactive) | > 100 µM (inactive) | –
CCC(=O)N1C(=O)OCC1C(C)C (configuration not stated) | > 100 µM (inactive) | > 100 µM (inactive) | > 100 µM (inactive) | > 100 µM (inactive) | > 100 µM (inactive) | > 100 µM (inactive) | > 100 µM (inactive) | > 100 µM (inactive) | > 100 | > 100 µM (inactive) | > 100 µM (inactive) | > 100 µM (inactive) | > 100 µM (inactive) | > 100 µM (inactive) | > 100 µM (inactive) | > 100 µM (inactive) | > 100 µM (inactive) | > 100 µM (inactive) | –
Cc1cc2c(=O)cc(-c3ccc(C(=O)O)cc3)oc2c(C(N)=O)c1C | > 100 µM (inactive) | > 100 µM (inactive) | > 100 µM (inactive) | > 100 µM (inactive) | > 100 µM (inactive) | > 100 µM (inactive) | > 100 µM (inactive) | > 100 µM (inactive) | > 100 | > 100 µM (inactive) | > 100 µM (inactive) | > 100 µM (inactive) | > 100 µM (inactive) | > 100 µM (inactive) | – | > 100 µM (inactive) | > 100 µM (inactive) | – | –
COC(=O)c1c(OC)cccc1C(=O)O | > 100 µM (inactive) | > 100 µM (inactive) | > 100 µM (inactive) | > 100 µM (inactive) | > 100 µM (inactive) | > 100 µM (inactive) | > 100 µM (inactive) | > 100 µM (inactive) | > 100 | > 100 µM (inactive) | > 100 µM (inactive) | > 100 µM (inactive) | > 100 µM (inactive) | > 100 µM (inactive) | > 100 µM (inactive) | > 100 µM (inactive) | > 100 µM (inactive) | > 100 µM (inactive) | –
CC1CC(=O)Nc2ccc(Cl)cc2N1C(=O)CN1CCC(CCCCN(C)C)CC1 (configuration not stated) | > 100 µM (inactive) | > 100 µM (inactive) | > 100 µM (inactive) | > 100 µM (inactive) | – | > 100 µM (inactive) | > 100 µM (inactive) | > 100 µM (inactive) | > 100 | > 100 µM (inactive) | > 100 µM (inactive) | > 100 µM (inactive) | 80 µM (inactive) | > 100 µM (inactive) | > 100 µM (inactive) | > 100 µM (inactive) | > 100 µM (inactive) | – | > 100 µM (inactive)
CC1CN1c1c(C(=O)/C=C/c2ccccc2)c(-c2ccccc2)nn(C)c1=O (configuration not stated) | 20.3 µM (inactive) | 16.2 µM (inactive) | 19.1 µM (inactive) | 15.2 µM (inactive) | 16.3 µM (inactive) | 18.5 µM (inactive) | 22.6 µM (inactive) | 18.2 µM (inactive) | 14.1 | 23.7 µM (inactive) | 16.4 µM (inactive) | 16.6 µM (inactive) | 18.2 µM (inactive) | 13.4 µM (inactive) | 37.4 µM (inactive) | – | 17.4 µM (inactive) | 24.7 µM (inactive) | –
C[n+]1c2ccccc2c(CNc2ccc(S(=O)(=O)N=C(N)N)cc2)c2ccccc21 | 43.7 µM (inactive) | 29.1 µM (inactive) | 9.66 µM (inactive) | 0.311 µM (active) | 24.8 µM (inactive) | 19.8 µM (inactive) | 3.6 µM (inactive) | 6.95 µM (inactive) | 10.2 | 16.3 µM (inactive) | 15.1 µM (inactive) | 5.31 µM (inactive) | 6.78 µM (inactive) | 1.45 µM (inactive) | 1.72 µM (inactive) | 2.7 µM (inactive) | 6.95 µM (inactive) | 15.1 µM (inactive) | –
CC(C)c1ccc(C(c2ccc(OCC(=O)O)cc2)c2ccc(C(C)C)cc(=O)c2O)c(O)c(=O)c1 | – | 3.61 µM (inactive) | 4.44 µM (inactive) | 3.73 µM (inactive) | – | 2.77 µM (inactive) | 4.4 µM (inactive) | 4.8 µM (inactive) | 3.56 | 4.33 µM (inactive) | 4.94 µM (inactive) | 3.78 µM (inactive) | 3.41 µM (inactive) | 4.05 µM (inactive) | 3.82 µM (inactive) | 4.38 µM (inactive) | 4.66 µM (inactive) | 10.2 µM (inactive) | –
O=S1(=O)OCCOS(=O)(=O)C1I | – | > 100 µM (inactive) | > 100 µM (inactive) | 75.3 µM (inactive) | > 100 µM (inactive) | > 100 µM (inactive) | 56.2 µM (inactive) | > 100 µM (inactive) | – | > 100 µM (inactive) | > 100 µM (inactive) | > 100 µM (inactive) | > 100 µM (inactive) | 86.9 µM (inactive) | > 100 µM (inactive) | > 100 µM (inactive) | – | – | 91.8 µM (inactive)
OCC(O)C(O)C(O)c1nnn[nH]1 (configuration not stated) | > 100 µM (inactive) | > 100 µM (inactive) | > 100 µM (inactive) | > 100 µM (inactive) | > 100 µM (inactive) | > 100 µM (inactive) | > 100 µM (inactive) | > 100 µM (inactive) | > 100 | > 100 µM (inactive) | – | > 100 µM (inactive) | > 100 µM (inactive) | > 100 µM (inactive) | > 100 µM (inactive) | > 100 µM (inactive) | > 100 µM (inactive) | – | > 100 µM (inactive)
Clc1ccc(/C=C/c2csnn2)cc1 | > 100 µM (inactive) | > 100 µM (inactive) | > 100 µM (inactive) | > 100 µM (inactive) | > 100 µM (inactive) | > 100 µM (inactive) | > 100 µM (inactive) | > 100 µM (inactive) | > 100 | > 100 µM (inactive) | > 100 µM (inactive) | > 100 µM (inactive) | > 100 µM (inactive) | > 100 µM (inactive) | > 100 µM (inactive) | – | > 100 µM (inactive) | > 100 µM (inactive) | –
C[C@]12CC[C@H](O)CC1=CC[C@@H]1C2CC[C@]2(C)NC(=O)C(C#N)CC12 (some centres not stated) | > 100 µM (inactive) | > 100 µM (inactive) | > 100 µM (inactive) | > 100 µM (inactive) | > 100 µM (inactive) | > 100 µM (inactive) | 12.8 µM (inactive) | > 100 µM (inactive) | 37.8 | > 100 µM (inactive) | > 100 µM (inactive) | > 100 µM (inactive) | 6.89 µM (inactive) | > 100 µM (inactive) | > 100 µM (inactive) | > 100 µM (inactive) | 28.6 µM (inactive) | 55.1 µM (inactive) | –
Cc1ccc(-c2nc3ccccc3c(=O)n2NCC2(O)OCC(O)C(O)C2O)cc1 (configuration not stated) | > 100 µM (inactive) | > 100 µM (inactive) | > 100 µM (inactive) | > 100 µM (inactive) | > 100 µM (inactive) | > 100 µM (inactive) | > 100 µM (inactive) | > 100 µM (inactive) | > 100 | – | – | > 100 µM (inactive) | > 100 µM (inactive) | > 100 µM (inactive) | > 100 µM (inactive) | > 100 µM (inactive) | > 100 µM (inactive) | > 100 µM (inactive) | > 100 µM (inactive)
C[C@H]1NC(=O)C2CCCCN2C(=O)CN(C)C(=O)CNC(=O)C2CCCCN2C(=O)[C@@H](NC(=O)c2nc3ccccc3cc2O)[C@@H](C)NC(=O)C2CCCCN2C(=O)CN(C)C(=O)CNC(=O)[C@@H]2CCCCN2C(=O)C1NC(=O)c1nc2ccccc2cc1O (some centres not stated) | 1.91 µM (inactive) | 0.389 µM (active) | 0.193 µM (active) | 2.59 µM (inactive) | 0.0817 µM (active) | 0.209 µM (active) | 0.0258 µM (active) | 0.225 µM (active) | 2.75 | 0.283 µM (active) | 0.204 µM (active) | 0.242 µM (active) | 0.231 µM (active) | 1.02 µM (active) | 0.136 µM (active) | 0.274 µM (active) | 0.232 µM (active) | 0.0463 µM (active) | –
CCCNCc1nc2ccc(Br)cc2c(=O)n1CCC | – | 14.6 µM (inactive) | 13.4 µM (inactive) | 7.8 µM (inactive) | 12.4 µM (inactive) | 18.4 µM (inactive) | 16.9 µM (inactive) | 13.7 µM (inactive) | 14.2 | 15.6 µM (inactive) | – | 13.4 µM (inactive) | 8.04 µM (inactive) | 3.27 µM (inactive) | – | 3.67 µM (inactive) | 16.1 µM (inactive) | 15.4 µM (inactive) | 11.7 µM (inactive)
